# Literature values as cited in PubChem BioAssay AID1259409 (Chemical Carcinogenesis Research Information System (CCRIS), 2018).
# *1 amine or outer side, *2 acyl side, *3 side chain or, on linkers, in order; H or OH if unused. Where a SMILES comes first, the peptide text is derived from it. [ ]: non-standard residue; d: D form. X1 = O=C(C(N[*:1])c1ccc(OS(=O)(=O)O)cc1)[*:2]
# System: rodent chemically induced tumor inhibition, incidence and multiplicity
# Test: CCRIS tumor inhibitor studies
# Details: Carcinogen: N-NITROSOBIS(2-OXOPROPYL)AMINE, 60599-38-4, Route [Inhibitor]: SUBCUTANEOUS, Species: HAMSTER, Strain/Sex: SYRIAN/MALE, FEMALE, Promoter: NONE USED
structure (smiles),measurement,setting,value
CCC(C)C(NC(=O)C(CCCNC(=N)N)NC(=O)C(Cc1c[nH]cn1)NC(=O)C(CO)NC(=O)C1CCCN1C(=O)C(CC(=O)O)NC(=O)C(CC(C)C)NC(=O)C(CC(N)=O)NC(=O)C(CCC(N)=O)NC(=O)C(CC(C)C)NC(=O)C(CC(N)=O)NC(=O)C(CCCCN)NC(=O)C(NC(=O)C(NC(=O)C(CO)NC(=O)C(CCSC)NC(=O)C(CCCNC(=N)N)NC(=O)CNC(=O)C(CO)NC(=O)C1CCCN1C(=O)C(C)NC(=O)C(N)CCCCN)C(C)CC)C(C)C)C(=O)NC(CO)C(=O)NC(CC(=O)O)C(=O)NC(CCCNC(=N)N)C(=O)NC(CC(=O)O)C(=O)NC(C(=O)NC(CCSC)C(=O)NCC(=O)NC(Cc1c[nH]c2ccccc12)C(=O)NC(CCSC)C(=O)NC(CC(=O)O)C(=O)NC(Cc1ccccc1)C(N)=O)c1ccc(OS(=O)(=O)O)cc1 (stereo not given) (H-KAPSGRMSIVKNLQNLDPSHRISDRD[X1]MGWMDF-NH2; configuration not given here),"tumour outcome (control, treated, inhibition, significance)","Dose [Inhibitor]: 20 IDU/KG BW 6/D FOR 15 WK FIRST DOSE GIVEN 3 HR POST CARCINOGEN DOSE (STUDY DURATION: 46 WK), Target Tissue: Type of Lesion: PANCREAS: DUCTAL/DUCTULAR CARCINOMA, Dose [Carcinogen]: 20 MG/KG BW IN PHYSIOLOGICAL SALINE ONCE","21/40 (52%), 10/37 (27%), 48%, p<0.05"
same,"tumour outcome (control, treated, inhibition, significance)","Dose [Inhibitor]: 20 IDU/KG BW 6/D FOR 15 WK FIRST DOSE GIVEN 3 HR POST CARCINOGEN DOSE (STUDY DURATION: 46 WK), Target Tissue: Type of Lesion: PANCREAS: DUCTULAR ADENOMA, Dose [Carcinogen]: 20 MG/KG BW IN PHYSIOLOGICAL SALINE ONCE","31/40 (78%), 22/37 (59%), 24%, not calculated"
same,"tumour outcome (control, treated, inhibition, significance)","Dose [Inhibitor]: 20 IDU/KG BW 6/D FOR 15 WK FIRST DOSE GIVEN 3 HR POST CARCINOGEN DOSE (STUDY DURATION: 46 WK), Target Tissue: Type of Lesion: PANCREAS: DUCTULAR PROLIFERATION, Dose [Carcinogen]: 20 MG/KG BW IN PHYSIOLOGICAL SALINE ONCE","37/40 (92%), 35/37 (95%), -3%, not calculated"
same,"tumour outcome (control, treated, inhibition, significance)","Dose [Inhibitor]: 20 IDU/KG BW INJECTED AT 30 MIN INTERVALS FOR 6 DOSES, FIRST DOSE GIVEN 3 HR POST CARCINOGEN DOSE (STUDY DURATION: 46 WK, Target Tissue: Type of Lesion: PANCREAS: DUCTAL/DUCTULAR CARCINOMA, Dose [Carcinogen]: 20 MG/KG BW IN PHYSIOLOGICAL SALINE ONCE","21/40 (52%), 17/39 (44%), 15%, not calculated"
same,"tumour outcome (control, treated, inhibition, significance)","Dose [Inhibitor]: 20 IDU/KG BW INJECTED AT 30 MIN INTERVALS FOR 6 DOSES, FIRST DOSE GIVEN 3 HR POST CARCINOGEN DOSE (STUDY DURATION: 46 WK, Target Tissue: Type of Lesion: PANCREAS: DUCTULAR PROLIFERATION, Dose [Carcinogen]: 20 MG/KG BW IN PHYSIOLOGICAL SALINE ONCE","37/40 (92%), 37/39 (95%), -3%, not calculated"
same,"tumour outcome (control, treated, inhibition, significance)","Dose [Inhibitor]: 20 IDU/KG BW INJECTED AT 30 MIN INTERVALS FOR 6 DOSES, FIRST DOSE GIVEN 3 HR POST EACH CARCINOGEN DOSE (STUDY DURATION:, Target Tissue: Type of Lesion: PANCREAS: DUCTAL ADENOMA, Dose [Carcinogen]: 2.5 MG/KG BW IN PHYSIOLOGICAL SALINE 1/WK FOR 20 WK","17/25 (68%), 20/25 (80%), -18%, not calculated"
same,"tumour outcome (control, treated, inhibition, significance)","Dose [Inhibitor]: 20 IDU/KG BW INJECTED AT 30 MIN INTERVALS FOR 6 DOSES, FIRST DOSE GIVEN 3 HR POST EACH CARCINOGEN DOSE (STUDY DURATION:, Target Tissue: Type of Lesion: PANCREAS: DUCTAL PROLIFERATION, Dose [Carcinogen]: 2.5 MG/KG BW IN PHYSIOLOGICAL SALINE 1/WK FOR 20 WK","22/25 (88%), 23/25 (92%), -5%, not calculated"
same,"tumour outcome (control, treated, inhibition, significance)","Dose [Inhibitor]: 20 IDU/KG BW INJECTED AT 30 MIN INTERVALS FOR 6 DOSES, FIRST DOSE GIVEN 3 HR POST EACH CARCINOGEN DOSE (STUDY DURATION:, Target Tissue: Type of Lesion: PANCREAS: DUCTAL/DUCTULAR CARCINOMA, Dose [Carcinogen]: 2.5 MG/KG BW IN PHYSIOLOGICAL SALINE 1/WK FOR 20 WK","15/25 (60%), 23/25 (92%), -53%, not calculated"
same,"tumour outcome (control, treated, inhibition, significance)","Dose [Inhibitor]: 20 IDU/KG BW INJECTED AT 30 MIN INTERVALS FOR 6 DOSES, FIRST DOSE GIVEN SIMULTANEOUSLY WITH CARCINOGEN DOSE (STUDY DURAT, Target Tissue: Type of Lesion: PANCREAS: DUCTAL/DUCTULAR CARCINOMA, Dose [Carcinogen]: 20 MG/KG BW IN PHYSIOLOGICAL SALINE ONCE","21/40 (52%), 5/39 (13%), 75%, p<0.001"
same,"tumour outcome (control, treated, inhibition, significance)","Dose [Inhibitor]: 20 IDU/KG BW INJECTED AT 30 MIN INTERVALS FOR 6 DOSES, FIRST DOSE GIVEN SIMULTANEOUSLY WITH CARCINOGEN DOSE (STUDY DURAT, Target Tissue: Type of Lesion: PANCREAS: DUCTULAR ADENOMA, Dose [Carcinogen]: 20 MG/KG BW IN PHYSIOLOGICAL SALINE ONCE","31/40 (78%), 23/39 (59%), 24%, not calculated"
same,"tumour outcome (control, treated, inhibition, significance)","Dose [Inhibitor]: 20 IDU/KG BW INJECTED AT 30 MIN INTERVALS FOR 6 DOSES, FIRST DOSE GIVEN SIMULTANEOUSLY WITH CARCINOGEN DOSE (STUDY DURAT, Target Tissue: Type of Lesion: PANCREAS: DUCTULAR PROLIFERATION, Dose [Carcinogen]: 20 MG/KG BW IN PHYSIOLOGICAL SALINE ONCE","37/40 (92%), 35/39 (90%), 2%, not calculated"
same,"tumour outcome (control, treated, inhibition, significance)","Dose [Inhibitor]: 20 IDU/KG BW INJECTED AT 30 MIN INTERVALS FOR 6 DOSES, FIRST DOSE GIVEN SIMULTANEOUSLY WITH EACH CARCINOGEN DOSE (STUDY, Target Tissue: Type of Lesion: PANCREAS: DUCTAL ADENOMA, Dose [Carcinogen]: 2.5 MG/KG BW IN PHYSIOLOGICAL SALINE 1/WK FOR 20 WK","17/25 (68%), 21/24 (88%), -29%, not calculated"
same,"tumour outcome (control, treated, inhibition, significance)","Dose [Inhibitor]: 20 IDU/KG BW INJECTED AT 30 MIN INTERVALS FOR 6 DOSES, FIRST DOSE GIVEN SIMULTANEOUSLY WITH EACH CARCINOGEN DOSE (STUDY, Target Tissue: Type of Lesion: PANCREAS: DUCTAL PROLIFERATION, Dose [Carcinogen]: 2.5 MG/KG BW IN PHYSIOLOGICAL SALINE 1/WK FOR 20 WK","22/25 (88%), 22/24 (92%), -5%, not calculated"
same,"tumour outcome (control, treated, inhibition, significance)","Dose [Inhibitor]: 20 IDU/KG BW INJECTED AT 30 MIN INTERVALS FOR 6 DOSES, FIRST DOSE GIVEN SIMULTANEOUSLY WITH EACH CARCINOGEN DOSE (STUDY, Target Tissue: Type of Lesion: PANCREAS: DUCTAL/DUCTULAR CARCINOMA, Dose [Carcinogen]: 2.5 MG/KG BW IN PHYSIOLOGICAL SALINE 1/WK FOR 20 WK","15/25 (60%), 18/24 (75%), -25%, not calculated"
same,"tumour outcome (control, treated, inhibition, significance)","Dose [Inhibitor]: 20 IDU/KG BW INJECTED AT 30 MIN INTERVALS FOR 6 DOSES, LAST DOSE 3 HR PRIOR TO CARCINOGEN DOSE (STUDY DURATION: 46 WK), Target Tissue: Type of Lesion: PANCREAS: DUCTAL/DUCTULAR CARCINOMA, Dose [Carcinogen]: 20 MG/KG BW IN PHYSIOLOGICAL SALINE ONCE","21/40 (52%), 8/37 (22%), 58%, p<0.025"
same,"tumour outcome (control, treated, inhibition, significance)","Dose [Inhibitor]: 20 IDU/KG BW INJECTED AT 30 MIN INTERVALS FOR 6 DOSES, LAST DOSE 3 HR PRIOR TO CARCINOGEN DOSE (STUDY DURATION: 46 WK), Target Tissue: Type of Lesion: PANCREAS: DUCTULAR ADENOMA, Dose [Carcinogen]: 20 MG/KG BW IN PHYSIOLOGICAL SALINE ONCE","31/40 (78%), 19/37 (51%), 35%, not calculated"
same,"tumour outcome (control, treated, inhibition, significance)","Dose [Inhibitor]: 20 IDU/KG BW INJECTED AT 30 MIN INTERVALS FOR 6 DOSES, LAST DOSE 3 HR PRIOR TO CARCINOGEN DOSE (STUDY DURATION: 46 WK), Target Tissue: Type of Lesion: PANCREAS: DUCTULAR PROLIFERATION, Dose [Carcinogen]: 20 MG/KG BW IN PHYSIOLOGICAL SALINE ONCE","37/40 (92%), 33/37 (89%), 3%, not calculated"
same,"tumour outcome (control, treated, inhibition, significance)","Dose [Inhibitor]: 20 IDU/KG BW INJECTED AT 30 MIN INTERVALS FOR 6 DOSES, LAST DOSE GIVEN 3 HR PRIOR TO EACH CARCINOGEN DOSE (STUDY DURATIO, Target Tissue: Type of Lesion: PANCREAS: DUCTAL ADENOMA, Dose [Carcinogen]: 2.5 MG/KG BW IN PHYSIOLOGICAL SALINE 1/WK FOR 20 WK","17/25 (68%), 25/29 (89%), -31%, not calculated"
same,"tumour outcome (control, treated, inhibition, significance)","Dose [Inhibitor]: 20 IDU/KG BW INJECTED AT 30 MIN INTERVALS FOR 6 DOSES, LAST DOSE GIVEN 3 HR PRIOR TO EACH CARCINOGEN DOSE (STUDY DURATIO, Target Tissue: Type of Lesion: PANCREAS: DUCTAL PROLIFERATION, Dose [Carcinogen]: 2.5 MG/KG BW IN PHYSIOLOGICAL SALINE 1/WK FOR 20 WK","22/25 (88%), 24/29 (86%), 2%, not calculated"
same,"tumour outcome (control, treated, inhibition, significance)","Dose [Inhibitor]: 20 IDU/KG BW INJECTED AT 30 MIN INTERVALS FOR 6 DOSES, LAST DOSE GIVEN 3 HR PRIOR TO EACH CARCINOGEN DOSE (STUDY DURATIO, Target Tissue: Type of Lesion: PANCREAS: DUCTAL/DUCTULAR CARCINOMA, Dose [Carcinogen]: 2.5 MG/KG BW IN PHYSIOLOGICAL SALINE 1/WK FOR 20 WK","15/25 (60%), 23/29 (82%), -37%, not calculated"
